{
  "source": "patent US10745703B2",
  "about": "“Compositions and methods for treating cancer” (CASE WESTERN RESERVE UNIVERSITY, priority 2009, dated 2020)",
  "type_in_all_cases": "cell-based, human",
  "key": {"PTPμ": {"system": "PTPμ", "experiment": "Proteolytic processing of PTPμ in LN-229 cells treated with protease inhibitors (biotinylation, immunoprecipitation, immunoblot)", "conditions": "for furin cleavage of PTPμ (full-length PTPμ at the cell surface, P-subunit formation): LN-229 cells, cell surface biotinylation, inhibitor 50 μM, 17-20 hours; for endogenous PTPμ PΔE and ICD fragments: parental LN-229 cells, immunoprecipitation SK-18, immunoblot SK-7; for PTPμ PΔE and ICD fragments: total lysates of LN-229 cells overexpressing PTPμ or PTPμ-GFP", "protocol": "Cell lysates were prepared and immunoblotted using normalized samples of ˜20 μg protein detected with monoclonal antibodies recognizing the intracellular segment of PTPμ (SK-7 or SK-18) (Mol Cell Biochem 1993; 127-128: 131-41). An antibody against vinculin was from Sigma-Aldrich (St. Louis, Mo.). The GFP antibody JL-8 was from Clontech (Mountain View, Calif.).\nCell surface biotinylation was performed using a Sulfo-NHS-SS-Biotin Kit (Pierce). Biotinylated proteins were isolated and resolved by SDS-PAGE on 6% gels followed by immunoblotting with an antibody to PTPμ (SK-18) as described (Mol Cancer Res 2008; 6: 1106-13).\n(§1) The Furin Inhibitor I (Dec-RVKR-CMK, Calbiochem, Gibbstown, N.J.) was used at 50 μM for 17-20 hours. The γ-secretase inhibitors DAPT (Sigma-Aldrich) and L-685,458 (Sigma-Aldrich) were used at 2 μM and 5 μM, respectively, for 17-20 hours. The proteasome was inhibited with MG132 (Sigma-Aldrich) at 20 μM or epoxomicin (Calbiochem) at 5 μM for 4 hours. GM6001 (Calbiochem) was used at 50 μM as an MMP/ADAM inhibitor for 17-20 hours. Inhibitors were reconstituted in DMSO, which was used as a vehicle control. […] The PTPμ wedge peptide and a scrambled control peptide were synthesized to include a membrane-penetrant Tat-derived sequence at the C-terminus to promote cellular uptake. Peptides synthesized by Genemed Synthesis (San Antonio, Tex.) or GenScript (Piscataway, N.J.) were reconstituted in water and added to cells at a final concentration of 5 μM.\nCells were grown to confluence, treated with inhibitors, and lysed in 20 mM Tris-HCL, pH 7.5, 1% Triton X-100, 150 mM NaCl, 2 mM EDTA, 1 mM benzamidine, aprotinin (5 μg/ml), leupeptin (5 μg/ml) and pepstatin (1 μg/ml). Samples were sonicated and centrifuged at 10,000 rpm for 5 minutes. Immunoprecipitations from ˜400 μg total protein were performed using a PTPμ antibody (SK-18) and resolved by SDS-PAGE on 8% gels followed by immunoblotting with an antibody to PTPμ (SK-7)."}, "LN-229 cells": {"system": "LN-229 cells", "experiment": "Scratch wound assay, LN-229 cells", "conditions": "for migration of LN-229 cells: peptide 5 μM, versus scrambled control, 24 hours; for PTPμ fragment-mediated cell migration: LN-229 cells, DAPT 2 μM, GM6001 50 μM", "protocol": "Confluent monolayers of cells were scratched to induce a wound and analyzed by microscopy for the distance migrated by the leading edge of the wound at 0 and 24 hrs.\nas §1"}, "U-87 MG cells": {"system": "U-87 MG cells", "experiment": "Scratch wound assay, U-87 MG cells", "protocol": "U-87 MG cells were infected with control or PTPμ shRNA lentivirus. After three days, confluent monolayers of cells were scratched with a 20 μl pipette tip to induce a wound. The wounded edges were imaged using a Nikon (Tokyo, Japan) TE200 inverted microscope and Spot RT digital camera and image acquisition software (Diagnostic Instruments, Inc., Sterling Heights, Mich.) Images were collected with a 10× objective 0, 6, 24, and 48 hours after wounding. Images were quantitated using MetaMorph software (Molecular Devices, Downingtown, Pa.) by measuring the width of the wound at each time point. The difference between the width of the wound at the zero time point and the time point being analyzed was divided by two. This value reflects the distance migrated by the leading edge of one side of the wound during a given time interval. Replicates were averaged and plotted using Microsoft Excel. Error bars indicate standard error. Data were analyzed for statistical significance using an unpaired student's t-test. Rac1 inhibition studies were performed using a Rac1-specific inhibitor from Calbiochem (Gibbstown, N.J.) (J Biol Chem. 2005;280:37516-37525; Proc Natl Acad Sci USA. 2004;101:7618-7623). For morphological studies, the inhibitor was dissolved in water and added at a final concentration of 100 μM just prior to scratching the cells. Cells were analyzed after 6 hours. For migration studies, the inhibitor was dissolved in water and added at a final concentration of 50 μM just prior to scratching the cells. Cells were analyzed after 24 hours."}},
  "note": "“Also recorded” adds a separate entry of the source. Where a SMILES comes first, the peptide text is derived from it. The star is where a group is joined. Decanoyl = CCCCCCCCCC(=O)*; Cbz = O=C(OCc1ccccc1)*; CH2Cl = ClC*",
  "data": [
    {"compound": "CCCCCCCCCC(=O)N[C@@H](CCCN=C(N)N)C(=O)N[C@H](C(=O)N[C@@H](CCCCN)C(=O)N[C@@H](CCCN=C(N)N)C(=O)CCl)C(C)C", "note": "[Furin Inhibitor I, Dec-RVKR-CMK] (Decanoyl-RVKR-CH2Cl)", "values": [
      {"measurement": "furin cleavage of PTPμ (full-length PTPμ at the cell surface, P-subunit formation)", "setting": "PTPμ; listed as inhibitor of furin", "result": "prevented P-subunit formation"},
      {"measurement": "furin cleavage of PTPμ (full-length PTPμ at the cell surface, P-subunit formation)", "setting": "PTPμ; listed as inhibitor of furin activity", "result": "accumulation of full-length PTPμ (200 kDa) at the cell surface"}
    ]},
    {"compound": "PTPμ wedge peptide: Peptide targeting the helix-loop-helix wedge domain of PTPμ with a membrane-penetrant Tat-derived sequence at the C-terminus (likely SEQ ID NO: 5) (DLLQHITQMKCAEGYGFKEEYESGRKKRRQRRRC)", "values": [
      {"measurement": "migration of LN-229 cells", "setting": "LN-229 cells", "result": "significantly reduced migration"},
      {"measurement": "migration of LN-229 cells", "setting": "LN-229 cells; listed as PTPμ wedge inhibitor peptide", "result": "statistically significant difference in migration"}
    ]},
    {"compound": "C[C@H](NC(=O)Cc1cc(F)cc(F)c1)C(=O)N[C@H](C(=O)OC(C)(C)C)c1ccccc1", "note": "[DAPT]", "values": [
      {"measurement": "PTPμ fragment-mediated cell migration", "setting": "LN-229 cells", "result": "increased migration"},
      {"measurement": "endogenous PTPμ PΔE and ICD fragments", "setting": "PTPμ", "result": "stabilized a fragment that corresponds by molecular weight to a membrane-tethered truncated P-subunit termed PΔE"},
      {"measurement": "PTPμ PΔE and ICD fragments", "setting": "PTPμ", "result": "accumulation of PTPμ PΔE and ICD; also recorded: stabilized"}
    ]},
    {"compound": "CC(C)C[C@H](NC(=O)[C@H](Cc1ccccc1)C[C@@H](O)[C@H](Cc1ccccc1)NC(=O)OC(C)(C)C)C(=O)N[C@@H](Cc1ccccc1)C(N)=O", "note": "[L685,458, L-685,458]", "values": [
      {"measurement": "PTPμ PΔE and ICD fragments", "setting": "PTPμ", "result": "accumulation of PTPμ PΔE and ICD; also recorded: stabilized"}
    ]},
    {"compound": "CCN(CC)CCCC(C)Nc1nc(C)cc(Nc2ccc3nc(C)cc(N)c3c2)n1", "note": "(racemic) [Rac1 inhibitor]", "values": [
      {"measurement": "induction of lamellipodia in cells with reduced PTPμ expression", "setting": "U-87 MG cells; U-87 MG cells with PTPμ shRNA #1, inhibitor 100 μM, 6 hours", "result": "prevented the induction of lamellipodia; also recorded: blocked the formation of PTPμ-induced lamellipodia"},
      {"measurement": "migration induced by the loss of PTPμ (distance migrated by leading edge)", "setting": "U-87 MG cells; U-87 MG cells with PTPμ shRNA, inhibitor 50 μM, 24 hours", "result": "significantly suppressed the migration; also recorded: significantly reduced the migration"},
      {"measurement": "effect on morphology of control U-87 MG cells", "setting": "U-87 MG cells; control shRNA U-87 MG cells, inhibitor 100 μM, 6 hours", "result": "no effect on morphology"}
    ]},
    {"compound": "CC(C)C[C@@H](C=O)NC(=O)[C@H](CC(C)C)NC(=O)[C@H](CC(C)C)NC(=O)OCc1ccccc1", "note": "[MG132] (Cbz-Leu-Leu-Leu-aldehyde)", "values": [
      {"measurement": "endogenous PTPμ PΔE and ICD fragments", "setting": "PTPμ", "result": "accumulation of both PΔE and a soluble fragment termed PTPμ intracellular domain (ICD); also recorded: stabilized"},
      {"measurement": "PTPμ PΔE and ICD fragments", "setting": "PTPμ", "result": "accumulation of PTPμ PΔE and ICD; also recorded: stabilized"}
    ]},
    {"compound": "CNC(=O)[C@H](Cc1c[nH]c2ccccc12)NC(=O)[C@@H](CC(=O)NO)CC(C)C", "note": "[GM6001]", "values": [
      {"measurement": "PTPμ fragment-mediated cell migration", "setting": "LN-229 cells", "result": "decreased migration"},
      {"measurement": "endogenous PTPμ PΔE and ICD fragments", "setting": "PTPμ", "result": "limited the formation of PTPμ PΔE and ICD fragments"}
    ]},
    {"compound": "CC[C@H](C)[C@H](NC(=O)[C@H]([C@@H](C)CC)N(C)C(C)=O)C(=O)N[C@H](C(=O)N[C@@H](CC(C)C)C(=O)[C@@]1(C)CO1)[C@@H](C)O", "note": "[epoxomicin]", "values": [
      {"measurement": "PTPμ PΔE and ICD fragments", "setting": "PTPμ", "result": "Stabilization of PTPμ ICD; also recorded: stabilized"}
    ]}
  ]
}
